ChEMBL document CHEMBL5727469, “Inhibitors of the renal outer medullary potassium channel” (2019)

Biological target: T1, ATP-sensitive inward rectifier potassium channel 1 (Homo sapiens, UniProt P48048)
T1 sequence (P48048 whole entry): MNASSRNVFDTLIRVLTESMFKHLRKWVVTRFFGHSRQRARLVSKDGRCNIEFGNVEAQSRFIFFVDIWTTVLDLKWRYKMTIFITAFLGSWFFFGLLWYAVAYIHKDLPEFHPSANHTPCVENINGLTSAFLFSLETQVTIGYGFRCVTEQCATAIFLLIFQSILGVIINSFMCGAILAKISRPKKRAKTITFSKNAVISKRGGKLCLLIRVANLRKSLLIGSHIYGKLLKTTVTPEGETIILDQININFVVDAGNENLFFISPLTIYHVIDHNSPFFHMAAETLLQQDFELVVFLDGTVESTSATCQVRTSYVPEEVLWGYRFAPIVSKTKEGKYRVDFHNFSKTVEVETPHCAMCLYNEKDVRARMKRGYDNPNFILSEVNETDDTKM
Assay: Thallium Flux Assay: 1. Seed HEK-hKir1.1 cells (50 μl at 20,000 cells/well) in 384-well PDL coated Microplates2. Allow cells to adhere overnight in humidified 37° C./10% CO2 incubator3. Completely remove cell growth media from microplate and replace with 25 μl loading buffer4. Incubate Microplate at room temperature, protected form light, for 90 min5. Remove loading buffer and replace with 25 μl 1× Assay Buffer±test compound.6. Incubate microplate at room temperature, protected from light, for 30 min7. At FLIPR-Tetra 384: Add stimulant (Thallium/Potassium) solution to microplate and monitor fluorescence. Excitation=400 nm, Emission=460 & 580 nm. Collect data for ˜10 min.Data Calculation—The fluorescence intensity of wells containing 3 μM of a standard control ROMK inhibitor of the present invention is used to define the ROMK-sensitive component of thallium flux. Fluorescence in the presence of test compounds is normalized to control values to provide % fluorescence change. IC50 values represent the concentration of compound that inhibits 50% of the ROMK thallium flux signal.

Row | IC50 [nM] | SMILES
1 | 157 | CC1=C(N2CCOC3(CCN(CC(O)c4ccc(-n5cnnn5)nc4C)CC3)C2)CCC1=O (stereo not given)
2 | 167 | CC1=C(N2CCOC3(CCN(C[C@H](O)c4ccc(-n5cnnn5)nc4)CC3)C2)CCC1=O
3 | 842 | CC1=C(N2CCC3(CCN(CC(O)c4ccc(-n5cnnn5)nc4C)CC3)C2=O)CCC1=O (single isomer, unassigned)
4 | 796 | CC1=C(N2CCOC3(CCN(C[C@H](O)c4ccc5c(c4C)COC5=O)CC3)C2)CCC1=O
5 | 285 | CC1=C(N2CCOC3(CCN(CC(O)c4ccc(-n5cnnn5)cc4C)CC3)C2)CCC1=O (stereo not given)
